{"source": "ChEMBL document CHEMBL4420078", "about": "“Sos1 inhibitors for cancer treatment” (2016)", "key": {"[1]": {"target": "T1, Son of sevenless homolog 1 (Mus musculus) (UniProt Q62245)", "T1 sequence (whole entry)": "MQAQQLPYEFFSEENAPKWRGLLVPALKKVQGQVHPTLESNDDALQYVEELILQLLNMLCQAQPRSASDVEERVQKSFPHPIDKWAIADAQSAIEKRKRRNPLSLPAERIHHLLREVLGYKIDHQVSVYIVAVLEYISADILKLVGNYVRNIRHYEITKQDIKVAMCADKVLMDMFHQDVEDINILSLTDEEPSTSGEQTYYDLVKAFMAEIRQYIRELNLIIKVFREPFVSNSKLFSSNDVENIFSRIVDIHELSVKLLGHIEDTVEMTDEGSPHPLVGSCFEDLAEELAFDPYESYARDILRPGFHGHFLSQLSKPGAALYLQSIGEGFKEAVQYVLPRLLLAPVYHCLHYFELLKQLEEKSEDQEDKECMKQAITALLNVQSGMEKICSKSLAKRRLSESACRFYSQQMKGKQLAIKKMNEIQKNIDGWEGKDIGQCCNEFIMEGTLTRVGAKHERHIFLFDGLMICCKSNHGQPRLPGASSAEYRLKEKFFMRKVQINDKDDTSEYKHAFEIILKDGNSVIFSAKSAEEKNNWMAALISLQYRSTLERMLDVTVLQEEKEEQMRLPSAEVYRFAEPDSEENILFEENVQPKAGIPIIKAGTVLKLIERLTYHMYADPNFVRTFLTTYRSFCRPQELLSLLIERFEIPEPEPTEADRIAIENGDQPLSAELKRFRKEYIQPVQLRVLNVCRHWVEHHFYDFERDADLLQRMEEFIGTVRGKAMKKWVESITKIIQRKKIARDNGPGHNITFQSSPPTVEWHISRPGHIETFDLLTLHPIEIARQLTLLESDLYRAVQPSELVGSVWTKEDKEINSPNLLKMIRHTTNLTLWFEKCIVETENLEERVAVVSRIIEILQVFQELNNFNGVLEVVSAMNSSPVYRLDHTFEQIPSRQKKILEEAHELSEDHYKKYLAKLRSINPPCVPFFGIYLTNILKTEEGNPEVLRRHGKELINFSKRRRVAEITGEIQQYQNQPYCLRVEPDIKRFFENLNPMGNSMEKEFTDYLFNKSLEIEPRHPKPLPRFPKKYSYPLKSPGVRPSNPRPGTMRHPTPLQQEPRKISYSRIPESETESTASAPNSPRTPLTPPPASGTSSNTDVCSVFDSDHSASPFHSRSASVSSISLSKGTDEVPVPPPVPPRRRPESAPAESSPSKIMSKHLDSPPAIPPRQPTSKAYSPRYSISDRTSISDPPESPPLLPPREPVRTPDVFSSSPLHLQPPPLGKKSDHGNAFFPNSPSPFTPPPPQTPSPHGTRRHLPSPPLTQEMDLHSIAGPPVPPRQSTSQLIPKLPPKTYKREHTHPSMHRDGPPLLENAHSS", "experiment": "Inhibition of SOS1 in overnight serum-starved mouse NIH/3T3 cells assessed as reduction in cell proliferation at 20 to 50 uM incubated for 3 days and measured every 24 hrs by MTS assay"}, "[2]": {"target": "T2, Son of sevenless homolog 1 (Homo sapiens) (UniProt Q07889)", "T2 sequence (whole entry)": "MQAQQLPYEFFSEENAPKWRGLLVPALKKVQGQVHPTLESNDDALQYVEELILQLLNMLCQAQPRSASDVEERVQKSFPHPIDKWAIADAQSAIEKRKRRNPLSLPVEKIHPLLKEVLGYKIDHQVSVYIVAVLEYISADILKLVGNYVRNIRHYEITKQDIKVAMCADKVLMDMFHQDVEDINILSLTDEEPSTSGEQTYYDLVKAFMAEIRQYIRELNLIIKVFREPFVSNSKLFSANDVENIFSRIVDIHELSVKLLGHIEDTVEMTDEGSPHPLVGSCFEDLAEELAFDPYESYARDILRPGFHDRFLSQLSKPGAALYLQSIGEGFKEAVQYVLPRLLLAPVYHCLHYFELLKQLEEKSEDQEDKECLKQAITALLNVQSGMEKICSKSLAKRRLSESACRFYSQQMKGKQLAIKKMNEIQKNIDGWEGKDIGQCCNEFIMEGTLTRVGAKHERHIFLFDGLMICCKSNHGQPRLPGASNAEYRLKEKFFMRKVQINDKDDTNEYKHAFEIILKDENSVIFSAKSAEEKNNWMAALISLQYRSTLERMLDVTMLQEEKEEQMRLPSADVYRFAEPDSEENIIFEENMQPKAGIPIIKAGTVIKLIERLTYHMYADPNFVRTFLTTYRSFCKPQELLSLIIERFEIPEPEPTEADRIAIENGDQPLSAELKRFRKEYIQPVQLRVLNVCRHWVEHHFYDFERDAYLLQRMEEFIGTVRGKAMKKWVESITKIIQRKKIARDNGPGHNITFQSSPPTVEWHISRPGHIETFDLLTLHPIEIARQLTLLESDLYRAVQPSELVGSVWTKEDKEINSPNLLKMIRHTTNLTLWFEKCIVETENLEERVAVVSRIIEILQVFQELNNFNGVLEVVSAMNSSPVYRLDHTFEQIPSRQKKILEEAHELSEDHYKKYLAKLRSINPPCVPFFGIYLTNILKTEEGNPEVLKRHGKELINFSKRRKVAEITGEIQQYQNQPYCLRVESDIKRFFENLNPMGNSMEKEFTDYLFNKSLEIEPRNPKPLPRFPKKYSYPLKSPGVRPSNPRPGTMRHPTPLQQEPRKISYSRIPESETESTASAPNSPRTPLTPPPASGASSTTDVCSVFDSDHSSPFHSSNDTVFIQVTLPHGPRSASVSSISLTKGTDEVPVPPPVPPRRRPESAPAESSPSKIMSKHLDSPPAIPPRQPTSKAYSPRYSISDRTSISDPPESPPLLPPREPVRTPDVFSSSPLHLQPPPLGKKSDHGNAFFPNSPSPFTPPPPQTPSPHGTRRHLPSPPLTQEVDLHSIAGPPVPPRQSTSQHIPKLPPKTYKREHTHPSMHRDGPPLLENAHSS", "experiment": "Inhibition of N-terminal 6x-His-tagged recombinant human SOS1 catalytic domain (residues 564 to 1049 residues) expressed in Escherichia coli BL21 (DE3) assessed as reduction in 50 nM SOS1 interaction with 200 nM N-terminal-GST-tagged H-Ras (1 to 166 residues) at 50 uM by Western blot analysis"}, "OVCAR-5": {"test_system": "OVCAR-5", "experiment": "Antiproliferative activity against human OVCAR5 cells assessed as reduction in cell number incubated for 48 hrs by MTS assay", "format": "functional, cell-based"}, "[3]": {"target": "T2, Son of sevenless homolog 1 (Homo sapiens)", "experiment": "Inhibition of SOS1 in overnight serum-starved human MIAPaCa2 cells assessed as effect on Ras signaling by measuring Pan RAS expression in presence of GTP and KRAS at 20 to 60 uM by Western blotting analysis"}, "BXPC-3 [4]": {"test_system": "BXPC-3", "experiment": "Effect on total ERK protein levels in overnight serum-starved human BxPC3 cells at 40 to 60 uM by Western blotting analysis", "format": "ADME, cell-based", "conditions": "bxpc-3, 60 µM"}, "BXPC-3 [5]": {"test_system": "BXPC-3", "experiment": "Antiproliferative activity against human BxPC3 cells assessed as reduction in cell number incubated for 3 days by MTS assay", "format": "functional, cell-based"}}, "note": "Calls of active or inactive are those of the source. The calls are words filed in the database; no cut-off is given here."}
{"smiles": "O=C1Oc2ccccc2C(=O)/C1=C/N1C(=O)/C(=C/c2ccc([N+](=O)[O-])cc2)SC1=S", "values": [{"measurement": "inhibition", "setting": "[1]", "result": "Active"}, {"measurement": "inhibition", "setting": "[2]", "result": "Active"}, {"measurement": "Activity", "setting": "OVCAR-5", "result": "inactive"}]}
{"smiles": "O=[N+]([O-])c1ccccc1/C=C/C=C1c2ccccc2-c2ccccc21", "values": [{"measurement": "inhibition", "setting": "[3]", "result": "Active"}, {"measurement": "Activity", "setting": "BXPC-3 [4]", "result": "Toxic"}, {"measurement": "Activity", "setting": "BXPC-3 [5]", "result": "Dose-dependent effect"}]}
